From ChEMBL document CHEMBL5649169 (ChemMedChem, 2018)

How the values were obtained:
[1] = molecular target: Serine/threonine-protein kinase Chk1 (Homo sapiens) (UniProt O14757)
[2] = molecular target: Exosome complex component 10 (Homo sapiens) (UniProt Q01780)
[3] = molecular target: Conserved oligomeric Golgi complex subunit 1 (Homo sapiens) (UniProt Q8WTW3)
[4] = molecular target: Valine--tRNA ligase (Homo sapiens) (UniProt P26640)
[5] = molecular target: Large ribosomal subunit protein eL24 (Homo sapiens) (UniProt P83731)
[6] = molecular target: Transgelin-2 (Homo sapiens) (UniProt P37802)
[7] = molecular target: Atypical kinase COQ8A, mitochondrial (Homo sapiens) (UniProt Q8NI60)
Atypical kinase COQ8A, mitochondrial (Homo sapiens), sequence (Q8NI60 163-647 limits assumed): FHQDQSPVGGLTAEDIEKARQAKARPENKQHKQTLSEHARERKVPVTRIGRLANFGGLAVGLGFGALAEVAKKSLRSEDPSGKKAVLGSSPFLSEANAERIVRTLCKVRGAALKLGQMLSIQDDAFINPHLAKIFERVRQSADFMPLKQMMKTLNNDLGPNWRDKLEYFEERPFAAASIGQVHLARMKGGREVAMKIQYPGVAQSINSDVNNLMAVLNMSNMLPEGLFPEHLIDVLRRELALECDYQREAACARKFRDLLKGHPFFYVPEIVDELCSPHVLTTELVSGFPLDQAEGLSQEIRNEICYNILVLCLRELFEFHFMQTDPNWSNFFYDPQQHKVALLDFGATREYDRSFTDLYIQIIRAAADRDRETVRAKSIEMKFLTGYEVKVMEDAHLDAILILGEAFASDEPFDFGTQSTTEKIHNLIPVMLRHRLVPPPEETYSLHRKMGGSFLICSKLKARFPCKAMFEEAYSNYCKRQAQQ

[8] = molecular target: Eukaryotic translation initiation factor 3 subunit G (Homo sapiens) (UniProt O75821)
[9] = molecular target: Trifunctional enzyme subunit alpha, mitochondrial (Homo sapiens) (UniProt P40939)
[10] = molecular target: Growth hormone-inducible transmembrane protein (Homo sapiens) (UniProt Q9H3K2)
[11] = molecular target: NADH dehydrogenase [ubiquinone] 1 alpha subcomplex assembly factor 4 (Homo sapiens) (UniProt Q9P032)
[12] = molecular target: TANK-binding kinase 1-binding protein 1 (Homo sapiens) (UniProt A7MCY6)
[13] = molecular target: Eukaryotic translation initiation factor 3 subunit B (Homo sapiens) (UniProt P55884)
[14] = molecular target: Maternal embryonic leucine zipper kinase (Homo sapiens) (UniProt Q14680)
Maternal embryonic leucine zipper kinase (Homo sapiens), sequence (Q14680 whole entry, looked up): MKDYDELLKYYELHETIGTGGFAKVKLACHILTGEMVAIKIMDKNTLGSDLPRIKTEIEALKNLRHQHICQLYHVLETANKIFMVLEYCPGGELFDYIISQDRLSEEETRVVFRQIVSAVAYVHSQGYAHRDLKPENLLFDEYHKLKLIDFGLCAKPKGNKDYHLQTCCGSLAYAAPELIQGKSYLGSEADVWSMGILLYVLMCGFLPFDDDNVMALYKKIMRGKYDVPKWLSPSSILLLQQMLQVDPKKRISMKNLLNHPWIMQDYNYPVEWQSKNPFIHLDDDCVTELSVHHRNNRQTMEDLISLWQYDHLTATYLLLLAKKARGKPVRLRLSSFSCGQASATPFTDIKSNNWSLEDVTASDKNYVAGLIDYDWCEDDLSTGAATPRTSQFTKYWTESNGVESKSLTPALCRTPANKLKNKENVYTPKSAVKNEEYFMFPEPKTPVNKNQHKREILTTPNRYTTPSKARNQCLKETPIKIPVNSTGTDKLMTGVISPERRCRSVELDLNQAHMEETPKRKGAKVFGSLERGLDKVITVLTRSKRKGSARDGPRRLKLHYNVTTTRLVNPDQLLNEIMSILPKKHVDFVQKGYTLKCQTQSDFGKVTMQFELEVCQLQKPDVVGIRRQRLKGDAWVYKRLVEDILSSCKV

[15] = molecular target: Mitogen-activated protein kinase 10 (Homo sapiens) (UniProt P53779)
[16] = molecular target: DNA replication licensing factor MCM7 (Homo sapiens) (UniProt P33993)
[17] = molecular target: Pyruvate kinase PKM (Homo sapiens) (UniProt P14618)
[18] = molecular target: Eukaryotic translation initiation factor 3 subunit J (Homo sapiens) (UniProt O75822)
[19] = molecular target: Serine/threonine-protein kinase LATS1 (Homo sapiens) (UniProt O95835)
[20] = molecular target: THO complex subunit 2 (Homo sapiens) (UniProt Q8NI27)
[21] = molecular target: Spectrin beta chain, non-erythrocytic 1 (Homo sapiens) (UniProt Q01082)
[22] = molecular target: RNA-binding protein 28 (Homo sapiens) (UniProt Q9NW13)
[23] = molecular target: Interleukin enhancer-binding factor 2 (Homo sapiens) (UniProt Q12905)
[24] = molecular target: 26S proteasome regulatory subunit 8 (Homo sapiens) (UniProt P62195)
[25] = molecular target: Serine hydroxymethyltransferase, mitochondrial (Homo sapiens) (UniProt P34897)
Serine hydroxymethyltransferase, mitochondrial (Homo sapiens), sequence (P34897 whole entry): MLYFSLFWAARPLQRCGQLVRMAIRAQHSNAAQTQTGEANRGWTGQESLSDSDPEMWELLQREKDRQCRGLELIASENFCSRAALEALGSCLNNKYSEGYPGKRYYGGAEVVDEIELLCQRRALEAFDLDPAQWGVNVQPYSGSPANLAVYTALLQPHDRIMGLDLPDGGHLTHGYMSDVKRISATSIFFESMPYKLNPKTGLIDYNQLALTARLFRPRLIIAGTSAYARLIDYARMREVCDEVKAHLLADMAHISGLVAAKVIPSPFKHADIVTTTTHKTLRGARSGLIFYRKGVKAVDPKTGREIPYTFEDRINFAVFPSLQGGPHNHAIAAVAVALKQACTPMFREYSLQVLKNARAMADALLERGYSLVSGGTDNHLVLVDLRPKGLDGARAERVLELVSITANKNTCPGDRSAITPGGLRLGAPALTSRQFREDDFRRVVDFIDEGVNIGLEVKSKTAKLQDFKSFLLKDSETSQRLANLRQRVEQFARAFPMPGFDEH

[26] = molecular target: Dipeptidyl peptidase 1 (Homo sapiens) (UniProt P53634)
[27] = species on record: Homo sapiens
[28] = molecular target: Protein FAM83B (Homo sapiens) (UniProt Q5T0W9)
Protein FAM83B (Homo sapiens), sequence (Q5T0W9 whole entry): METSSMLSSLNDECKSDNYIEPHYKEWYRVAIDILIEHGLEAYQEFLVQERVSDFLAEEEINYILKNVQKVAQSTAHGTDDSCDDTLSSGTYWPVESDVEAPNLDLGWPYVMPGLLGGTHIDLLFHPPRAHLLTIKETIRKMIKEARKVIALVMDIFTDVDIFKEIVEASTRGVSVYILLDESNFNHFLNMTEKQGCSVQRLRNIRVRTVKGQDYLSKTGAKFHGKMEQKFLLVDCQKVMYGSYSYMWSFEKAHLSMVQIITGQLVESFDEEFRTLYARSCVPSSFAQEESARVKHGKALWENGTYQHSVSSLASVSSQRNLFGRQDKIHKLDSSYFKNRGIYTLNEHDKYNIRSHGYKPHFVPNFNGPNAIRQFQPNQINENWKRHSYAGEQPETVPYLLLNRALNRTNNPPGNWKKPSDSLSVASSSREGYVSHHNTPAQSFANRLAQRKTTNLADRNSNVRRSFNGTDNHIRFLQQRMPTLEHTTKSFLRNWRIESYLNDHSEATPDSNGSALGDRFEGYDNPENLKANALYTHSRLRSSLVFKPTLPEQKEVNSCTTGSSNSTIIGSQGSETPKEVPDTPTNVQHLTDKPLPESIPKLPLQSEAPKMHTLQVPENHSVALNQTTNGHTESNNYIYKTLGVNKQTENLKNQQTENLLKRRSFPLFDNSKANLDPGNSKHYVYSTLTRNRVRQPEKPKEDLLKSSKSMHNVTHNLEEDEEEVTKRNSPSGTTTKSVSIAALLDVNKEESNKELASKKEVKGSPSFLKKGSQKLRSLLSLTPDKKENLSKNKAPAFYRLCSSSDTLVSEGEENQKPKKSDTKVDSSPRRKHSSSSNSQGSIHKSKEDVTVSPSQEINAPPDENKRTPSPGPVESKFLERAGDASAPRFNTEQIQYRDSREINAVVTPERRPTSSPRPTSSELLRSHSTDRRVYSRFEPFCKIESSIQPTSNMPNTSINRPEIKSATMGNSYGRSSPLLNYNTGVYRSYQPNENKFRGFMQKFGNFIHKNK

[29] = molecular target: Nucleolar complex protein 2 homolog (Homo sapiens) (UniProt Q9Y3T9)
[30] = molecular target: Fructosamine-3-kinase (Homo sapiens) (UniProt Q9H479)
[31] = molecular target: Ras-related protein Rab-14 (Homo sapiens) (UniProt P61106)
[32] = molecular target: TRAF2 and NCK-interacting protein kinase (Homo sapiens) (UniProt Q9UKE5)
[33] = molecular target: Ribosome-binding protein 1 (Homo sapiens) (UniProt Q9P2E9)
[34] = molecular target: Small ribosomal subunit protein eS24 (Homo sapiens) (UniProt P62847)
[35] = molecular target: Succinate dehydrogenase [ubiquinone] iron-sulfur subunit, mitochondrial (Homo sapiens) (UniProt P21912)
[36] = molecular target: Calcium load-activated calcium channel (Homo sapiens) (UniProt Q9UM00)
[37] = molecular target: Small ribosomal subunit protein uS8 (Homo sapiens) (UniProt P62244)
[38] = molecular target: SUN domain-containing protein 2 (Homo sapiens) (UniProt Q9UH99)
[39] = molecular target: Glutathione S-transferase P (Homo sapiens) (UniProt P09211)
[40] = molecular target: ATP-dependent DNA helicase Q1 (Homo sapiens) (UniProt P46063)
[41] = molecular target: Deoxyribose-phosphate aldolase (Homo sapiens) (UniProt Q9Y315)
[42] = molecular target: Ubiquitin carboxyl-terminal hydrolase 7 (Homo sapiens) (UniProt Q93009)
[43] = molecular target: Large ribosomal subunit protein uL30 (Homo sapiens) (UniProt P18124)
[44] = molecular target: Citron Rho-interacting kinase (Homo sapiens) (UniProt O14578)
[45] = molecular target: Glycine--tRNA ligase (Homo sapiens) (UniProt P41250)
[46] = molecular target: Dopamine beta-hydroxylase (Homo sapiens) (UniProt P09172)
[47] = molecular target: Serine/threonine-protein kinase/endoribonuclease IRE1 (Homo sapiens) (UniProt O75460)
Serine/threonine-protein kinase/endoribonuclease IRE1 (Homo sapiens), sequence (O75460 19-977 limits assumed): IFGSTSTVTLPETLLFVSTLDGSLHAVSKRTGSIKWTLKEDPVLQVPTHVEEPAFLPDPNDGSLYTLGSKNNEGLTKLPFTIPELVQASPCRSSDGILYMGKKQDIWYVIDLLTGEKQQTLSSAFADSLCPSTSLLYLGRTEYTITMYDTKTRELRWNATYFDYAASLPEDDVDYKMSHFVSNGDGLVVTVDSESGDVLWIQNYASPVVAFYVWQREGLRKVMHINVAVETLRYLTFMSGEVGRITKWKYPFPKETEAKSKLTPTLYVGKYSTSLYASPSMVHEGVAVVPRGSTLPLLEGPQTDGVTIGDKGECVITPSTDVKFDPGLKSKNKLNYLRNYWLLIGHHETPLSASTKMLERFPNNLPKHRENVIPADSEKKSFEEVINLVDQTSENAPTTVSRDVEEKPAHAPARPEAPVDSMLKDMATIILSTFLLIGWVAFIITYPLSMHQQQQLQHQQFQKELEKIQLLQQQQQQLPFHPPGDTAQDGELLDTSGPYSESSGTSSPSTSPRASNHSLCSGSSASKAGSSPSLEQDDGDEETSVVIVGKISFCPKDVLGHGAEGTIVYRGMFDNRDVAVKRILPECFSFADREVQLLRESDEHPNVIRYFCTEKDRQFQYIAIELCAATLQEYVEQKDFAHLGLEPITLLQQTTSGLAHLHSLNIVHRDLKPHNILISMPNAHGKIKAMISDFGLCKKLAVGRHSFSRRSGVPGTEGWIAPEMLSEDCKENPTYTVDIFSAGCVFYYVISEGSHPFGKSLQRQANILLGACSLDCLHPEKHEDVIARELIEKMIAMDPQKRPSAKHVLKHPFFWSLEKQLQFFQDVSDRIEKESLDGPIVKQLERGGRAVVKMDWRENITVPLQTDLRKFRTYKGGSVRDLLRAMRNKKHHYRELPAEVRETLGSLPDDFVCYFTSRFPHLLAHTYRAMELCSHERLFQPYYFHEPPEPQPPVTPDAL
Further: assay method not described here.

Exosome complex component 10 (Homo sapiens), sequence (Q01780 whole entry, one chain of several): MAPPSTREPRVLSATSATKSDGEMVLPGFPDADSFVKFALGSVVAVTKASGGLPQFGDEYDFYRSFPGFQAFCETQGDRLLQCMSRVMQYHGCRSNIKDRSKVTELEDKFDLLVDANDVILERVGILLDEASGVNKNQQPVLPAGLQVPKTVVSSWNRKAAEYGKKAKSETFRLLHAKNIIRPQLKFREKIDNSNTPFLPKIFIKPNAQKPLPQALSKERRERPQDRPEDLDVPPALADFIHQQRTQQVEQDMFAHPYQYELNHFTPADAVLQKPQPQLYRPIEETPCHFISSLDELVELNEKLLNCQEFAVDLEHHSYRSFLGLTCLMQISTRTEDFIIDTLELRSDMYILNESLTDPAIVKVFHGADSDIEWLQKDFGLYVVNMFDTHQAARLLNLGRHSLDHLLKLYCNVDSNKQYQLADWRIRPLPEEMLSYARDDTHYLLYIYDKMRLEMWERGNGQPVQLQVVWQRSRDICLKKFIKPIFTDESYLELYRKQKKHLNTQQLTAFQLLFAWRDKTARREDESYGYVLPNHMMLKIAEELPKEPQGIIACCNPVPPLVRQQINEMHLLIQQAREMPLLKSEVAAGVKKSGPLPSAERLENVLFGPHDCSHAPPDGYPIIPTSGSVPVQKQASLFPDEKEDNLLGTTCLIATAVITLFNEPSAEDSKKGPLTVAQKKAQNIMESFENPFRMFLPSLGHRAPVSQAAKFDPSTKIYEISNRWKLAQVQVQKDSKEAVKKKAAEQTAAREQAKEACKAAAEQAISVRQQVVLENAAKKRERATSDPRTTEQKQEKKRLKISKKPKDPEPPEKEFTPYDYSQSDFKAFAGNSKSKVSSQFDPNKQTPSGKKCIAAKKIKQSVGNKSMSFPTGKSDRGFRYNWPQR
Serine/threonine-protein kinase Chk1 (Homo sapiens), sequence (O14757 whole entry): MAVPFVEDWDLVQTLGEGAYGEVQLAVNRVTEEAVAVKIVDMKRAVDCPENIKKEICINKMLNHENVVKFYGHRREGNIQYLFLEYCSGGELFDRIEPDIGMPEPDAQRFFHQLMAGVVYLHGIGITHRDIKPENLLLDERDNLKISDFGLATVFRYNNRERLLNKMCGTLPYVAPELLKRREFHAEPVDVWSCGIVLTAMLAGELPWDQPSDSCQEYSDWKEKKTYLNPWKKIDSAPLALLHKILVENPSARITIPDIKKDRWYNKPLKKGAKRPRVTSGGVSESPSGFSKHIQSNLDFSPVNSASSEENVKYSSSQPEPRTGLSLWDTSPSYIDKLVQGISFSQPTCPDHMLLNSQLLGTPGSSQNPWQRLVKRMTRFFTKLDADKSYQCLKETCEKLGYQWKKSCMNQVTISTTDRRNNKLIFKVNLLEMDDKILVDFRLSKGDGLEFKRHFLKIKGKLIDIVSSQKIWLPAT

Cc1ccc(C(=O)Nc2cccc(C(F)(F)F)c2)cc1Nc1nc(-c2cccnc2)nc2nn(C)cc12
ED50 [1]: 20.6 µM
ED50 [2]: 348 µM
ED50 [3]: 69.8 µM
ED50 [4]: 0.0195 µM
ED50 [5]: 27 µM
ED50 [6]: 0.102 µM
ED50 [7]: 8.58 µM
ED50 [8]: 0.0104 µM
ED50 [9]: 0.0595 µM
ED50 [10]: 0.0192 µM
ED50 [11]: 1.82 µM
ED50 [12]: 0.06 µM
ED50 [13]: 0.00195 µM
ED50 [14]: 6.57 µM
ED50 [15]: 1.72 µM
ED50 [16]: 50.3 µM
ED50 [17]: 0.174 µM
ED50 [18]: 0.54 µM
ED50 [19]: 0.0878 µM
ED50 [20]: 2.05 µM
ED50 [21]: 0.0908 µM
ED50 [22]: 1.75 µM
ED50 [23]: 0.0135 µM
ED50 [24]: 0.443 µM
ED50 [25]: 0.345 µM
ED50 [26]: 1.88 µM
ED50 [27]: 43.2 µM
ED50 [28]: 0.254 µM
ED50 [29]: 627 µM
ED50 [30]: 0.291 µM
ED50 [31]: 4.44 µM
ED50 [32]: 0.0751 µM
ED50 [33]: 0.277 µM
ED50 [34]: 0.314 µM
ED50 [35]: 191 µM
ED50 [36]: 0.281 µM
ED50 [37]: 5.32 µM
ED50 [38]: 0.111 µM
ED50 [39]: 58.7 µM
ED50 [40]: 12.9 µM
ED50 [41]: 2.45 µM
ED50 [42]: 0.049 µM
ED50 [43]: 12.3 µM
ED50 [44]: 15.6 µM
ED50 [45]: 17.6 µM
ED50 [46]: 3.14 µM
ED50 [47]: 1.92 µM

Cc1ccc(C(=O)Nc2cccc(C(F)(F)F)c2)cc1Nc1nc(-c2cccnc2)nc2c1cnn2C
ED50 [1]: 1.32 µM
ED50 [2]: 0.0037 µM
ED50 [3]: 0.0039 µM
ED50 [4]: 2.39 µM
ED50 [5]: 10.3 µM
ED50 [6]: 3.15 µM
ED50 [7]: 0.39 µM
ED50 [8]: 0.00468 µM
ED50 [9]: 0.877 µM
ED50 [10]: 0.00891 µM
ED50 [11]: 0.0015 µM
ED50 [12]: 11.4 µM
ED50 [13]: 9.87 µM
ED50 [14]: 0.0176 µM
ED50 [15]: 32.9 µM
ED50 [16]: 5.39 µM
ED50 [17]: 5.83 µM
ED50 [18]: 0.126 µM
ED50 [19]: 0.00186 µM
ED50 [20]: 8.4 µM
ED50 [21]: 1.61 µM
ED50 [22]: 0.021 µM
ED50 [23]: 4.54 µM
ED50 [24]: 7.4 µM
ED50 [25]: 58.3 µM
ED50 [26]: 0.0113 µM
ED50 [27]: 3.52 µM
ED50 [28]: 1380 µM
ED50 [29]: 0.637 µM
ED50 [30]: 7.31 µM
ED50 [31]: 2.88 µM
ED50 [32]: 23.2 µM
ED50 [33]: 11.3 µM
ED50 [34]: 0.357 µM
ED50 [35]: 93.1 µM
ED50 [36]: 0.0219 µM
ED50 [37]: 0.00641 µM
ED50 [38]: 13.5 µM
ED50 [39]: 1700 µM
ED50 [40]: 0.0304 µM
ED50 [41]: 3.14 µM
ED50 [42]: 0.00616 µM
ED50 [43]: 0.0167 µM
ED50 [44]: 0.771 µM
ED50 [45]: 0.0374 µM
ED50 [46]: 2.26 µM
ED50 [47]: 0.00529 µM
